Source: patent KR19980042868A, “인슐린-유사 작용을 갖는 이노시톨글리칸” (피셔 한스-위르겐, priority 1996, dated 1998)

Legend:
[1] = system: rat adipocytes (랫트 지방 세포); assay: Lipogenesis (지방형성): incorporation of D-[3-3H]glucose into toluene-soluble lipids in isolated rat adipocytes; type: cell-based; conditions: 90 min, 37°C; for EC50: concentration giving 50% of the compound's own maximum stimulation; for %Insmax: maximum insulin stimulation ratio (with/without insulin) = 100%
[2] = system: rat adipocytes (랫트 지방 세포); assay: Glucose transport (글루코오스 이송): uptake of 2-[3H]-deoxyglucose in isolated rat adipocytes; type: cell-based; conditions: 15 min, 37°C, then 2-[3H]-deoxyglucose at room temperature; for EC50: concentration giving 50% of the compound's own maximum stimulation; for %Insmax: maximum insulin stimulation ratio = 100%

Substance	EC50 [1] [µM]	%Insmax [1] [%]	EC50 [2] [µM]	%Insmax [2] [%]
HO-PO(H)O-6Manα1(Manα1-2)-2Manα1-6Manα1-4GluNβ1-6(D)이노시톨-1,2-(사이클릭)-포스페이트 [화합물 B]	8.2	77	8.1	41
HO-PO(H)O-6Manα(Manα1-2)-2Manα1-6Manα1-4GluNβ1-6(L)이노시톨-1,2-(사이클릭)-포스페이트 [화합물 A]	7	59	8	28
HO-PO(H)O-6Manα1-4GluNα1-6(L)이노시톨	25	15	10	2
HO-PO(H)O-6Manα1-4GluNα1-6(L)이노시톨-1,2-(사이클릭)-포스페이트	15	25	15	9
HO-PO(H)O-6Manα1-6-Manα1-6Manα1-6Manα1-3GluNβ1-6(L)이노시톨-3-포스페이트 [I]	20	18	50	14
HO-PO(H)O-6Manα1(Manα1-2)-2Manα1-6Manα1-4GluNα1-6(L)이노시톨-2-포스페이트 [F]	15	53	25	26
HO-PO(H)O-6Manα1(Manα1-2)-2Manα1(6-EtNP)-6Manα1(2-EtNP)-4GluNβ1-6(D)이노시톨-1,2-(사이클릭)-포스페이트	60	48	30	34
HO-PO(H)O-6Manα1(Manα1-2)-2Manα1-6Manα1-3GluNβ1-6(L)이노시톨-3-포스페이트 [D]	20	33	18	18
HO-PO(H)O-6Manα1(Manα1-2)-2Manα1-6Manα1-4GluNβ1-6(D)이노시톨-1,2-(사이클릭)-티오포스페이트 [C]	7	64	10	29
